Assay results as given in patent publication US11117930B2, “Peptide inhibitors of transcription factor aggregation” (ADRX, INC., priority 2017, dated 2021).
Where two headings read alike, the source gives them in different places. Non-standard residues stand in square brackets, D forms with d. Residues, ends and D or L forms follow the SMILES beside them. No end group written: not given here. NMeI = CC[C@H](C)[C@H](NC)C(=O)O

Tests used:
[1] = molecular target: p73 [RPILIIITLE—SEQ ID NO: 227] (Homo sapiens, UniProt O15350); test: Thioflavin T aggregation assay, p73 amyloidogenic region; assay type: biochemical; set-up: dose or concentration left out as unconfirmed; conditions: inhibitors added in solution; FIG. 2(b)
Source text: (§1) FIGS. 1(a) and 1(b) show the aggregation of p63 and p73 amyloidogenic regions, respectively. The aggregation of the p63 and p73 sequences are monitored via Thioflavin T assay: an increase in Thioflavin T fluorescence is detected over time due to the formation of increasing amounts of amyloid to which the dye can specifically bind.
(§2) FIGS. 2(a) and 2(b) show the in vitro inhibition of p63 and p73 aggregation by several inhibitors. The aggregation is monitored via Thioflavin T assay. […] The baseline of no inhibitor is the line with squares.
An increase in Thioflavin T fluorescence is detected over time due to the formation of increasing amounts of amyloid to which the dye can specifically bind. […] For the Nat1 Stock Solution, Nat1 (LTIITLE (SEQ ID NO: 225), >95% Pure, TFA salt) is dissolved at 8 mM in 25 mM NaOH solution and kept at −80° C. Prior to the assay, it is diluted to 1 mM in H2O. The 2× Reaction Buffer is prepared with 200 mM Sodium Phosphate, pH6.0, 500 mM Sodium Chloride and 200 μM Thioflavin T (ThT). 100 μL of 2× reaction buffer and 80 μL of H2O are added to each well in black, clear-bottomed 96-well plate. Inhibitor peptides are dissolved in H2O to appropriate concentrations to produce 6-points dose response curves. […] ThT fluorescence is monitored at room temperature every minute for 2 hours with excitation and emission wavelengths of 440 and 485 nm, respectively. […]

[2] = molecular target: p63 [RPILIIVTLE—SEQ ID NO: 226] (Homo sapiens, UniProt Q9H3D4); test: Thioflavin T aggregation assay, p63 amyloidogenic region; assay type: biochemical; set-up: dose or concentration left out as unconfirmed; conditions: inhibitors added in solution; FIG. 2(a)
Source text: as §1, §2
The peptides are tested for p63 binding and p73 binding in an in vitro Thiofiavin T aggregation assay. […] The addition of the 50 μM solutions of p63 and p73 peptides to the reaction Buffer described in Example 3, forms amyloid (FIG. 1(a) and FIG. 1(b)). An increase in Thioflavin T fluorescence is detected over time due to the formation of increasing amounts of amyloid to which the dye can specifically bind. […] For the Nat1 Stock Solution, Nat1 (LTIITLE (SEQ ID NO: 225), >95% Pure, TFA salt) is dissolved at 8 mM in 25 mM NaOH solution and kept at −80° C. Prior to the assay, it is diluted to 1 mM in H2O. […] ThT fluorescence is monitored at room temperature every minute for 2 hours with excitation and emission wavelengths of 440 and 485 nm, respectively. […]

[3] = molecular target: Nat1 (LTIITLE (SEQ ID NO: 225)) (Homo sapiens, UniProt P04637); test: Thioflavin T aggregation assay (Nat1); assay type: biochemical; conditions: ThT fluorescence, 50 μM Nat1, pH6.0, room temperature, 2 hours
Protocol: The peptides of the invention were tested in an in vitro Thiofiavin T aggregation assay [see WO2014/182961]. An increase in Thioflavin T fluorescence is detected over time due to the formation of increasing amounts of amyloid to which the dye can specifically bind. […] For the Nat1 Stock Solution, Nat (LTIITLE (SEQ ID NO: 225), >95% Pure, TFA salt) is dissolved at 8 mM in 25 mM NaOH solution and kept at −80° C. Prior to the assay, it is diluted to 1 mM in H2O. The 2× Reaction Buffer is prepared with 200 mM Sodium Phosphate, pH6.0, 500 mM Sodium Chloride and 200 μM Thioflavin T (ThT). 100 μL of 2× reaction buffer and 80 μL of H2O are added to each well in black, clear-bottomed 96-well plate. Inhibitor peptides are dissolved in H2O to appropriate concentrations to produce 6-points dose response curves. 10 μL of dissolved peptide or H2O (control) is added to each reaction well. 10 μL of 1 mM Nat1 peptide is added to each reaction well (a final concentration of 50 μM). ThT fluorescence is monitored at room temperature every minute for 2 hours with excitation and emission wavelengths of 440 and 485 nm, respectively. IC50 values are calculated using Graphpad Prism.

[4] = system: OVCAR3; assay type: cell-based; conditions: 24 h
Protocol: (§3) To render the inhibitors cell permeable, the peptides are fused to either a nine-residue poly L-Arg tag or a nine-residue poly D-Arg tag, through one of several three-residue linkers, either L-RPI, D-RPI, or D-GGG. Cancer cell lines, e.g. OVCAR-3, and Detroit 562 are treated with the peptide conjugates for 24 hours by the following method. OVCAR3 and Detroit-562 cells are grown in ATCC recommended growth media. The peptides were made in a 4 mM stock. Cells are plated in 96-well flat bottom clear plates at 7000 cells/well. After 24 hours, compounds are serially diluted in one-third [starting at 33 μM] or one-half [starting at 30 μM] dilutions in PrEGM media (Lonza). Growth media was removed from the wells and compound in PrEGM was added to 100 ul final volume. 24 hours post-compound addition cell metabolism was measured by addition of 20 μl MTS solution (Promega, cell-titer 96 aqueous). Absorbance was read at 490 nm following a 2 hour incubation and data was processed in Prism Graphpad to generate EC50 values.

[5] = system: Detroit-562; assay type: cell-based; conditions: 24 h
Protocol: as §3

[6] = Stability in human serum; assay type: in vitro ADME; conditions: CPP linked peptides, read-out: Stability in Human Serum (t1/2)
[7] = Protein binding in human serum; assay type: in vitro ADME; conditions: CPP linked peptides

| Compound | EC50 [4] [µM] | EC50 [5] [µM] | half-life [6] [h] | fraction unbound [7] | also measured |
| --- | --- | --- | --- | --- | --- |
| LLIKYHR [LLIKYHR] | – | – | – | – | in vitro inhibition of p73 aggregation [1]: delay the aggregation onset and lower the total amount of aggregates present; in vitro inhibition of p63 aggregation [2]: delay the aggregation onset and lower the total amount of aggregates present |
| Ac-IRIRRYR-NH2 [Ac-IRIRRYR-NH2] | – | – | – | – | IC50 [3]: 0.069 µM |
| CC[C@H](C)[C@@H](C(=O)N[C@@H](CCCCN)C(=O)N[C@@H](Cc1ccc(O)cc1)C(=O)N[C@@H](Cc1c[nH]cn1)C(=O)N[C@@H](CCCNC(=N)N)C(=O)O)N(C)C(=O)[C@H](CCCNC(=N)N)NC(=O)[C@@H](N)CC(C)C [LR(N-Me)IKYHR] (H-LR[NMeI]KYHR-OH; N-terminus and C-terminus assumed) | – | – | – | – | IC50 [3]: 0.334 µM |
| N=C(N)NCCC[C@@H](N)C(=O)N[C@H](Cc1ccccc1)C(=O)N[C@H](Cc1ccc(O)cc1)C(=O)N[C@H](Cc1ccc(O)cc1)C(=O)N[C@H](Cc1c[nH]cn1)C(=O)N[C@H](CCCNC(=N)N)C(=O)N[C@H](CCCNC(=N)N)C(=O)O [rfyyhrr] (H-[dR][dF][dY][dY][dH][dR][dR]-OH; N-terminus and C-terminus assumed) | – | – | – | – | in vitro inhibition of p73 aggregation [1]: delay the aggregation onset and lower the total amount of aggregates present; in vitro inhibition of p63 aggregation [2]: delay the aggregation onset and lower the total amount of aggregates present |
| CC[C@H](C)[C@H](NC(=O)[C@@H]1CCCN1C(=O)[C@H](CCCNC(=N)N)NC(=O)[C@H](CCCNC(=N)N)NC(=O)[C@H](CCCNC(=N)N)NC(=O)[C@H](CCCNC(=N)N)NC(=O)[C@H](CCCNC(=N)N)NC(=O)[C@H](CCCNC(=N)N)NC(=O)[C@H](CCCNC(=N)N)NC(=O)[C@H](CCCNC(=N)N)NC(=O)[C@H](CCCNC(=N)N)NC(=O)[C@@H](N)CCCNC(=N)N)C(=O)N[C@H](CCCNC(=N)N)C(=O)N[C@H](Cc1ccccc1)C(=O)N[C@H](Cc1ccc(O)cc1)C(=O)N[C@H](Cc1ccc(O)cc1)C(=O)N[C@H](Cc1c[nH]cn1)C(=O)N[C@H](CCCNC(=N)N)C(=O)N[C@H](CCCNC(=N)N)C(=O)O [RRRRRRRRRRPIrfyyhrr] (H-RRRRRRRRRRPI[dR][dF][dY][dY][dH][dR][dR]-OH; N-terminus and C-terminus assumed) | 16 | 9 | 0.95 | 0.09 | – |
| CC[C@H](C)[C@H](NC(=O)[C@@H]1CCCN1C(=O)[C@H](CCCNC(=N)N)NC(=O)[C@H](CCCNC(=N)N)NC(=O)[C@H](CCCNC(=N)N)NC(=O)[C@H](CCCNC(=N)N)NC(=O)[C@H](CCCNC(=N)N)NC(=O)[C@H](CCCNC(=N)N)NC(=O)[C@H](CCCNC(=N)N)NC(=O)[C@H](CCCNC(=N)N)NC(=O)[C@H](CCCNC(=N)N)NC(=O)[C@@H](N)CCCNC(=N)N)C(=O)N[C@H](CCC(N)=O)C(=O)N[C@H](CCC(N)=O)C(=O)N[C@H](CCCNC(=N)N)C(=O)N[C@H](Cc1ccc(O)cc1)C(=O)N[C@H](Cc1ccc(O)cc1)C(=O)N[C@H](Cc1c[nH]c2ccccc12)C(=O)N[C@H](CCCNC(=N)N)C(=O)O [RRRRRRRRRRPIqqryywr] (H-RRRRRRRRRRPI[dQ][dQ][dR][dY][dY][dW][dR]-OH; N-terminus and C-terminus assumed) | 22 | 12 | 10 | 0.18 | – |
| CC[C@@H](C)[C@@H](NC(=O)[C@H]1CCCN1C(=O)[C@@H](CCCNC(=N)N)NC(=O)[C@@H](CCCNC(=N)N)NC(=O)[C@@H](CCCNC(=N)N)NC(=O)[C@@H](CCCNC(=N)N)NC(=O)[C@@H](CCCNC(=N)N)NC(=O)[C@@H](CCCNC(=N)N)NC(=O)[C@@H](CCCNC(=N)N)NC(=O)[C@@H](CCCNC(=N)N)NC(=O)[C@@H](CCCNC(=N)N)NC(=O)[C@H](N)CCCNC(=N)N)C(=O)N[C@H](Cc1c[nH]cn1)C(=O)N[C@H](CCC(N)=O)C(=O)N[C@H](CCCNC(=N)N)C(=O)N[C@H](CCC(N)=O)C(=O)N[C@H](Cc1ccc(O)cc1)C(=O)N[C@H](CCC(N)=O)C(=O)N[C@H](CCCNC(=N)N)C(=O)O [rrrrrrrrrrpihqrqyqr] (H-[dR][dR][dR][dR][dR][dR][dR][dR][dR][dR][dP][dI][dH][dQ][dR][dQ][dY][dQ][dR]-OH; N-terminus and C-terminus assumed) | 27 | 35 | – | 0.88 | half-life ([6]; cells given in hr): > 24 h |
| PRRRRRRRRRRPILRIRYWKP | 5 | 5 | 3.33 | 0.02 | – |
